Test results from patent US20040001839A1, “Multimers - isolated molecules comprising epitopes containing sulfated moieties, antibodies to such epitopes, and uses thereof” (priority 2000, published 2004).
No end group written: not given here. *: point of attachment. sulfate = O=S(=O)(O)*

What was measured:
KG-1 cells = assay: AML KG-1 model in NOD/SCID mice; format: in vivo
Method: The in vivo mouse model for human AML uses SCID/NOD mice (Jackson Laboratories) inoculated with KG-1 cells derived from a human AML cell line.
In a first experiment, NOD/SCID mice were pretreated with 100 mg/kg CYTOXAN®. Four days post CYTOXAN® injection, KG-1 cells were injected intravenously into the tail vein of six groups of mice. (Table N, Groups 2 and 5-9). One group of mice (Table N, Group 1) was injected with PBS alone (control). [273.][273.]
Beginning 19 days post KG-1 injection mice were treated with: CONY1, Doxorubicin, CONY1-Doxorubicin conjugate, or Mylotarg®. (Mylotarg® is a monoclonal antibody (anti CD33) conjugated chemically to calcheamicin recently approved by the FDA for treatment of AML patients age 60 and over in a first relapse.) Mice were treated once or three times per week for three weeks. One group (group 2) of KG-1 inoculated mice were left untreated. (Table N). Two other groups of mice (groups 3 and 4) were injected with KG-1 cells that were previously incubated with CONY1 or 181-scFv (a negative, non-specific control antibody) in serum free RPMI containing 1% BSA at 4° C. for 1 h. The antibodies were used at a concentration of 0.25 mg scFv/10^8 cells (75 μg/mouse). Before injection into the mice the preincubated KG-1 cells were washed and resuspended in RPMI. The KG-1 cells in RPMI were inoculated into mice at a concentration of 75 μg scFv/0.2 ml RPMI per mouse. Group 3 mice were inoculated with KG-1+CONY1, and group 4 mice were inoculated with KG-1+181-scFv. (Table N). This treatment (group 3 and 4) was carried out one day after the inoculation of groups 1-2 and 5-9, i.e., at five days after CYTOXAN injection.
Mice were sacrificed from 60 to 65 days post cell injection. Bone marrow and blood samples were analyzed by flow cytometry using mouse anti human CD34-FITC (IQP 144F) (or anti CD44-FITC (MCA89F, Serotec)) and Y1-Biotin/SAV-PE. Mouse IgG1-FITC (IQP 191-F) was used as an isotype control, and mouse IgG2a-FITC (MCA929F, Serotec) was used as a negative control. Flow cytometry was performed using FACSCalibur system and CellQwest software, Becton Dickinson.
An additional experiment was performed in which SCID-NOD mice were i.v. injected with 3×10^4 MOLT-4 cells/mouse 5 days post treatment with cyclophosphamide. Anti-cancer agents or PBS were injected IV three times/week, from day 14 onward. On day 60, blood was drawn, then the animals were sacrificed. Bone marrow was extracted and analyzed by FACS analysis using a commercially available antiCD44 antibody for the detection of MOLT-4 cells in the mice bone marrow cell population.

[1] = tested on: scFv Y1 binding to glycocalicin; assay: Competitive binding ELISA of sulfated peptides (scFv Y1 binding to immobilized glycocalicin); parameters: species or system human; conditions: peptide 1, 10 and 100 μM, preincubated 10 minutes with scFv Y1
Method: A competitive binding ELISA assay was used to assess the importance of the presence and position of sulfated tyrosines to the binding of peptides to Y1.
Glycocalicin was immobilized on a Maxisorb plate. scFv Y1 was preincubated with a peptide of interest for 10 minutes at three different concentrations (1, 10 and 100 μM) in order to observe a dose response. (Table 12). After preincubation, the mixture (Y1+peptide) was added to the plate, and binding of scFv Y1 was assessed using polyclonal rabbit anti-VL, which recognizes the VL chain of scFv Y1, followed by anti-rabbit-HRP. In mixtures in which the peptide bound to scFv Y1, a decrease in the binding of scFv Y1 to glycocalicin compared to control binding was observed.

Q: For `COc1cccc2c1C(=O)c1c(O)c3c(c(O)c1C2=O)C[C@@](O)(C(=O)CO)C[C@@H]3O[C@H]1C[C@H](N)[C@H](O)[C@H](C)O1` [Doxorubicin], which “percentage of KG-1 cells in bone marrow compared to group 2 (untreated)” value (KG-1 cells; 0.1 mg/kg free Doxorubicin, 3 times per week (group 6)) is on record?
A: The value was “statistically significant (p<0.05) lower percentage of KG-1 cells”.

Q: What about the “mice that died within three weeks after treatment initiation” value (KG-1 cells; 5 mg/kg free Doxorubicin, 1 time per week (group 7)) of the same molecule?
A: The value was “Nine out of 10”.

Q: And the “reduction in the number of tumor cells in the bone marrow” value (KG-1 cells; additional experiment, day 60, Doxorubicin alone or as conjugate 75 μg/mouse)?
A: The value was 50%.

Q: “GDEGDTDLY*DY*Y*PEEDTE (GDEGDTDLY(sulfate)DY(sulfate)Y(sulfate)PEEDTE) [G-Y*Y*Y*, GPIbα peptide, sulfated]” was tested. Which “inhibition of Y1 binding to glycocalicin” value [1] did it give?
A: Its value is “did inhibit”.

Q: With “Mylotarg: monoclonal antibody (anti CD33) conjugated chemically to calcheamicin” as the molecule, how does the “KG-1 cells in bone marrow” value (KG-1 cells; 0.2 mg/kg, 1 time per week (group 9)) read?
A: The value was “free of KG 1 cells”.

Q: What about the “prevalence of bone marrow cancer, day 60” value (KG-1 cells; additional experiment, 7 μg/mouse, once a week) of the same molecule?
A: Its value is “completely inhibited”.

Q: With “QATEYEY*LDY*DFLPETE (QATEYEY(sulfate)LDY(sulfate)DFLPETE) [P-YY*Y*, PSGL-1 n-terminus peptide, sulfated]” as the molecule, how does the “inhibition of Y1 binding to glycocalicin” value [1] read?
A: Its value is “best inhibitors”.
